Assay results taken from patent US20250250298A1, “ONCOLYTIC PEPTIDE AND USE THEREOF” (Rise Biopharmaceuticals Inc., priority 2022, published 2025).
Where a SMILES comes first, the peptide text is derived from it.

How the values were obtained:
[1] = system: SAS (Human tongue carcinoma); test: MTT cytotoxicity, SAS; format: cell-based; details: 24 hours incubation
From the text: (§1) The MTT assay is a colorimetric method for measuring the activity of enzymes in living cells that reduces Thiazolyl blue tetrazolium bromide (MTT) to formazan dyes showing a purple color. In this embodiment, a colorimetric 3-(4.5-dimethylthiazol-2-yl)-2.5-diphenyltetrazodium bromide (MTT) viability assay was used to assess the in vitro cytotoxicity of oncolytic peptides.
(§2) The half inhibition concentration (IC50) is the concentration required by the oncolytic peptides to reach fifty percent inhibition. In one embodiment, the oncolytic peptides were used for IC50 test via MTT colorimetric assay.
(§3) All cancer cell lines were seeded in a 96-well plate with a concentration of 5000-8000 cells/100 μl/well and incubated for 24 hrs. After medium was removed, 100 μl fresh medium containing peptide (ranging from 50 μM to 0.8 μM) was added to the wells. Following 24 hours incubation, fresh medium with MTT (0.5 mg/ml) was replaced and incubated for 3 hours. After medium/MTT was removed, DMSO was added at 100 μl for dissolving the formazan crystal. Cell survival rate was calculated by measuring the absorbance at 540 nm using a Multi-labeled Microplate Reader (Sunrise™, TECAN).

[2] = system: HUVEC (Human Umbilical Vein Endothelial (Cell)); test: MTT cytotoxicity, HUVEC; format: cell-based; details: 24 hours incubation
From the text: as §1, §2, §3

[3] = system: B16-F10 (Murine skin malignant melanoma); test: MTT cytotoxicity, B16-F10; format: cell-based; details: B16-F10, 24 hours incubation
From the text: as §1, §2
(§4) Human lung cancer lines PC9 and A549 and murine pancreatic cancer cell line Panc02 were cultured in RPMI medium supplemented with 10% fetal bovine serum and antibiotic in this embodiment. Additionally, murine hepatoma cell line Hepa 1-6, murine melanoma cell line B16-F10, murine fibrosarcoma cell line MN-11, murine mammary cancer cell line E0771 and human diploid fibroblast (HFW) were cultured in DMEM medium supplemented with 10% fetal bovine serum and antibiotic. Cells were cultured in a humidified incubator containing 5% CO2 at 37° C.
as §3

[4] = system: PC9 (Human non-small cell lung cancer cell); test: MTT cytotoxicity, PC9; format: cell-based; details: PC9, 24 hours incubation
From the text: as §1, §2, §4, §3

Panc02 = test: MTT cytotoxicity, Panc02; format: cell-based, murine; details: Panc02, 24 hours incubation
From the text: as §1, §2, §4, §3

E0771 breast cancer = format: in vivo; details: E0771 tumor-bearing C57BL/6 mice
Experimental: FIGS. 7A-7B are schematic diagrams of E0771 breast cancer experiments. FIG. 7A: The right flank of the mouse was administrated with SEQ ID NO:9. […] (2×10^5E0771 cells per mouse/50 μl RPMI-1640). Palpable tumors (75 mm^3) were injected (IT.) with single doses of SEQ ID NO:9 dissolved in PBS (1.0 mg peptide/50 μl PBS) once a day for 5 consecutive days, and the vehicle control was saline only (0.9% NaCl).
Female C57BL/6 mice (4- to 6-week old) as allogeneic model animals were purchased from BioLASCO Taiwan Co., Ltd. and maintained in a specific pathogen-free and controlled environment. During the experiments, female mice, weighing 18.0-24.0 g each, were kept in groups of 4 to 6 animals per cage under climate-controlled conditions, with 12 h light/dark cycles and an ambient temperature. The mice were housed in an enriched individually ventilated cage (IVC) system with free access to standard rodent chow and water ad libitum. The animals were anesthetized during the experimental procedures with 2.5% isoflurane gas. The animals were monitored daily. […]
Tumor size was measured 3 times a week using a caliper, and the volume of tumors was calculated using the following formula: Tumor size (mm^3)=0.5×(width^2×length). […] The survival rates of tumor-bearing mice were observed and recorded continuously until all animals died. […]

[5] = system: EO771 (Murine mammary adenocarcinoma); test: MTT cytotoxicity, EO771; format: cell-based; details: EO771, 24 hours incubation
From the text: as §1, §2, §4, §3

[6] = system: C9 (Human oral cancer cell); test: MTT cytotoxicity, C9; format: cell-based; details: C9, 24 hours incubation
From the text: as §1, §2, §3

[7] = system: NCI-N87 (Human gastric carcinoma); test: MTT cytotoxicity, NCI-N87; format: cell-based; details: NCI-N87, 24 hours incubation
From the text: as §1, §2, §3

[8] = system: HepG2 Cancer Cells (Human hepatocellular carcinoma); test: MTT cytotoxicity, HepG2; format: cell-based; details: HepG2, 24 hours incubation
From the text: as §1, §2, §3

CC(C)C[C@H](NC(=O)[C@H](Cc1ccc2ccccc2c1)NC(=O)[C@H](CCCCN)NC(=O)[C@H](CC(C)C)NC(=O)[C@H](Cc1c[nH]c2ccccc12)NC(=O)[C@H](CCCCN)NC(=O)[C@H](CCCNC(=N)N)NC(=O)[C@H](Cc1c[nH]c2ccccc12)NC(=O)[C@H](CCCNC(=N)N)NC(=O)[C@H](CCCNC(=N)N)NC(=O)[C@H](CCCCN)NC(=O)[C@H](CCCCN)NC(=O)[C@H](CCCCN)NC(=O)[C@@H](N)CCCCN)C(=O)N[C@@H](C)C(=O)N[C@@H](CCCCN)C(N)=O [SEQ ID NO: 9, KKKK-RR-WRK-WLK-Nal-LA-K-NH2] (HELM PEPTIDE1{K.K.K.K.R.R.W.R.K.W.L.K.[O=C([C@H](Cc1ccc2ccccc2c1)N[*:1])[*:2]].L.A.K.[am]}$$$$V2.0; N-terminus assumed)
IC50 [1]: 6.03 µM
IC50 [2]: 6.32 µM
IC50 [3]: 7.16 µM
IC50 [4]: 3.02 µM
IC50 (Panc02): 2.66 µM
Survival (lifespan) (E0771 breast cancer; IT. 1.0 mg once a day for 5 days, vs untreated controls): extended the lifespan
Tumor growth, treated tumor (right flank) (E0771 breast cancer; IT. 1.0 mg peptide/50 μl PBS once a day for 5 consecutive days, vs saline control): significantly inhibited tumor growth
IC50 [5]: 2.01 µM
IC50 [6]: 6.43 µM
IC50 [7]: 2.35 µM
IC50 [8]: 9.81 µM
